This note sets out measurements from patent publication US20200255478A1, “NOVEL COMPOUNDS ACTIVATING THE NRF2 PATHWAY” (Almirall, S.A., priority 2017, published 2020).

Starred links: 1 amine or outer side, 2 acyl side, 3 side chain; linkers in the order of their positions; H or OH if unused. Positions of bridges follow the written chain, without caps; N, C: chain ends. Residues, ends and D or L forms follow the SMILES beside them. *: point of attachment. oXylylene = c1ccc(C[*:2])c(C[*:1])c1; X2 = c1ccc2cc(C[*:2])c(C[*:1])cc2c1; Stearoyl = CCCCCCCCCCCCCCCCCC(=O)*; βAla = NCCC(=O)O Bounds are passed on as bounds.

The target of one assay is Keap1-Maltose Binding Protein (MBP tag) (Homo sapiens, UniProt Q14145). Put plainly: Nrf2-Keap1 HTRF (TR-FRET) binding assay: displacement of biotinylated ETGE peptide from Keap1-MBP.
Keap1-Maltose Binding Protein (MBP tag), sequence (Q14145 whole entry): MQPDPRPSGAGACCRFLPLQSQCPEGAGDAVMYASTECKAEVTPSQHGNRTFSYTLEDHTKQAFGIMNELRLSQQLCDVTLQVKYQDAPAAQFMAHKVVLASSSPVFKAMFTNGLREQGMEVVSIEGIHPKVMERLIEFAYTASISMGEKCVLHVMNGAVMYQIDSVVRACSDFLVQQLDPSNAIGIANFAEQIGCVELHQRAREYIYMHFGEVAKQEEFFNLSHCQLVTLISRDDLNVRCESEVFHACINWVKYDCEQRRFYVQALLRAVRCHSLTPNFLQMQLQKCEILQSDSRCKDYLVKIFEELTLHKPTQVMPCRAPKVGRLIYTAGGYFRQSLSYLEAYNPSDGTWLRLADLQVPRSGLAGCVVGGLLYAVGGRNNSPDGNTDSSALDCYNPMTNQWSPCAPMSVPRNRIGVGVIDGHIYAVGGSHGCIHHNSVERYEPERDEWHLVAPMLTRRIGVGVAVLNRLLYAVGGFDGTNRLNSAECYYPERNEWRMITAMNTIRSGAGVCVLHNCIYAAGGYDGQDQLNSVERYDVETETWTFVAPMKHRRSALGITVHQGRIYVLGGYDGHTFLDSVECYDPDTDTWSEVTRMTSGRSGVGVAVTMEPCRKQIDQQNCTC
Details: not given
(In general: Time-resolved FRET reads energy transfer from a long-lived donor to a nearby acceptor.)
The term IC50 denotes the concentration needed to halve the response being measured. `CCCCCCCCCCCC(=O)N[C@H]1C[C@H]2C(=O)N[C@@H](CCC(N)=O)C(=O)N[C@H]3CSCc4ccccc4CSC[C@H](NC(=O)[C@H](CCC(=O)O)NC(=O)CNC(=O)[C@H]([C@@H](C)O)NC(=O)[C@H](CCC(=O)O)NC(=O)[C@@H]4CCCN4C(=O)[C@H](CC(=O)O)NC3=O)C(=O)N[C@@H](CC(C)C)C(=O)N3CCC[C@@H]3C(=O)N2C1` [Example 85, {[&^1Pro((4S)-NH-Lauryl)-Gln-Cys(&^2)-Asp-Pro-Glu-Thr-Gly-Glu-Cys(&^3)-Leu-D-Pro&^1][&^2(1,2-phenylenediyl)dimethylene&^3]}] yielded an IC50 of less than 1 nM.
Still for that read-out and setting: next, `CCCCCCCCCCCCCCCCCC(=O)N[C@H]1C[C@@H](C(=O)N[C@@H](CCC(N)=O)C(=O)N[C@H]2CSCc3ccccc3CSC[C@@H](C(=O)N[C@@H](CC(C)C)C(=O)N3CCC[C@@H]3C(N)=O)NC(=O)[C@H](CCC(=O)O)NC(=O)CNC(=O)[C@H]([C@@H](C)O)NC(=O)[C@H](CCC(=O)O)NC(=O)[C@@H]3CCCN3C(=O)[C@H](CC(=O)O)NC2=O)N(C(C)=O)C1` [Example 75, {[Acetyl-Pro((4S)-NH-Stearyl)-Gln-Cys(&^1)-Asp-Pro-Glu-Thr-Gly-Glu-Cys(&^2)-Leu-D-Pro-NH2][&^1(1,2-phenylenediyl)dimethylene^2]}]: 1 to 100 nM.

The assay is the same for the next values; noted with them: HTRF (TR-FRET); displacement of ETGE-biotin from Keap1-MBP; values banded into grades; read-out: Binding (IC50) ETGE-Keap1.
As to `CC(C)C[C@H](NC(=O)[C@H](CC(C)C)NC(=O)[C@@H]1CSCc2cc3ccccc3cc2CSC[C@H](NC(=O)[C@H](CC(C)C)NC(=O)[C@@H](N)CC(C)C)C(=O)N[C@@H](CC(=O)O)C(=O)N2CCC[C@H]2C(=O)N[C@@H](CCC(=O)O)C(=O)N[C@@H]([C@@H](C)O)C(=O)NCC(=O)N[C@@H](CCC(=O)O)C(=O)N1)C(=O)NCCC(=O)N[C@@H](CCCNC(=N)N)C(=O)N[C@@H](CCCCN)C(=O)N[C@@H](CCCCN)C(=O)N[C@@H](CCCNC(=N)N)C(=O)N[C@@H](CCCNC(=N)N)C(=O)N[C@@H](CCC(N)=O)C(=O)N[C@@H](CCCNC(=N)N)C(=O)N[C@@H](CCCNC(=N)N)C(=O)N[C@@H](CCCNC(=N)N)C(N)=O` [Example 58], the IC50 was less than 1 nM.
As for `CC(C)C[C@H](NC(=O)[C@@H]1CSCc2cc3ccccc3cc2CSC[C@H](NC(=O)[C@H](CCC(N)=O)NC(=O)[C@@H](N)CC(C)C)C(=O)N[C@@H](CC(=O)O)C(=O)N2CCC[C@H]2C(=O)N[C@@H](CCC(=O)O)C(=O)N[C@@H]([C@@H](C)O)C(=O)NCC(=O)N[C@@H](CCC(=O)O)C(=O)N1)C(=O)N1CCC[C@H]1C(=O)NCCC(=O)N[C@@H](CCCNC(=N)N)C(=O)N[C@@H](CCCNC(=N)N)C(=O)N[C@@H](CCCNC(=N)N)C(=O)N[C@@H](CCCNC(=N)N)C(=O)N[C@@H](CCCNC(=N)N)C(=O)N[C@@H](CCCNC(=N)N)C(=O)N[C@@H](CCCNC(=N)N)C(=O)N[C@@H](CCCNC(=N)N)C(=O)N[C@@H](CCCNC(=N)N)C(=O)N[C@@H](CCCNC(=N)N)C(N)=O` [Example 69, {[H-Leu-G1n-Cys(&^1)-Asp-Pro-Glu-Thr-Gly-Glu-Cys(&^2)-Leu-Pro-βAla-Arg10-NH2][&^1(naphthalene)2,3-diyldimethylene&^2]}], the IC50 was in the range of 1 to 100 nM.
On the same count and under the same terms, next, `CC(C)C[C@H](NC(=O)[C@@H]1CSCc2ccccc2CSC[C@H](NC(=O)[C@H](CCC(N)=O)NC(=O)[C@@H](N)CC(C)C)C(=O)N[C@@H](CC(=O)O)C(=O)N2CCC[C@H]2C(=O)N[C@@H](CCC(=O)O)C(=O)N[C@@H]([C@@H](C)O)C(=O)NCC(=O)N[C@@H](CCC(=O)O)C(=O)N1)C(=O)N1CCC[C@H]1C(=O)NCCC(=O)N[C@@H](CCCNC(=N)N)C(=O)N[C@@H](CCCCN)C(=O)N[C@@H](CCCCN)C(=O)N[C@@H](CCCNC(=N)N)C(=O)N[C@@H](CCCNC(=N)N)C(=O)N[C@@H](CCC(N)=O)C(=O)N[C@@H](CCCNC(=N)N)C(=O)N[C@@H](CCCNC(=N)N)C(=O)N[C@@H](CCCNC(=N)N)C(N)=O` [Example 34]: 1 to 100 nM.
Same read-out and setting: the same measure for `CCCCCCCCCCCCCCCCCC(=O)NCCC(=O)N[C@@H](CCCCN)C(=O)N[C@@H](CCCCN)C(=O)N[C@H]1CSCc2ccccc2CSC[C@@H](C(=O)N[C@@H](CCCCN)C(=O)N[C@@H](CCCCN)C(N)=O)NC(=O)[C@H](CCC(=O)O)NC(=O)CNC(=O)[C@H]([C@@H](C)O)NC(=O)[C@H](CCC(=O)O)NC(=O)[C@@H]2CCCN2C(=O)[C@H](CC(=O)O)NC1=O` [Example 53, {[Stearyl-βAla-Lys-Lys-Cys(&^1)-Asp-Pro-Glu-Thr-Gly-Glu-Cys(&^2)-Lys-Lys-NH2][&^1(1,2-phenylenediyl)dimethylene&^2]}] ({Stearoyl-βAla}-KKCDPETGECKK-NH2; linker 3-10 via oXylylene): 1 to 100 nM; for `CCCCCCCCCCCCCCCCCC(=O)NCCC(=O)N[C@@H](CC(C)C)C(=O)N[C@@H](CCC(N)=O)C(=O)N[C@H]1CSCc2cc3ccccc3cc2CSC[C@@H](C(=O)N[C@@H](CC(C)C)C(=O)N2CCC[C@H]2C(=O)O)NC(=O)[C@H](CCC(=O)O)NC(=O)CNC(=O)[C@H]([C@@H](C)O)NC(=O)[C@H](CCC(=O)O)NC(=O)[C@@H]2CCCN2C(=O)[C@H](CC(=O)O)NC1=O` [Example 36, {[Stearyl-βAla-Leu-Gln-Cys(&^1)-Asp-Pro-Glu-Thr-Gly-Glu-Cys(&^2)-Leu-Pro-OH][&^1(naphthalene)2,3-diyldimethylene&^2]}] ({Stearoyl-βAla}-LQCDPETGECLP-OH; linker 3-10 via X2): 1 to 100 nM; for `CCCCCCCCCCCCCCCCCC(=O)NCCC(=O)N(C)[C@@H](CC(C)C)C(=O)N[C@@H](CCC(N)=O)C(=O)N[C@H]1CSCc2ccccc2CSC[C@@H](C(=O)N[C@@H](CC(C)C)C(=O)N2CCC[C@H]2C(N)=O)NC(=O)[C@H](CCC(=O)O)NC(=O)CNC(=O)[C@H]([C@@H](C)O)NC(=O)[C@H](CCC(=O)O)NC(=O)[C@@H]2CCCN2C(=O)[C@H](CC(=O)O)NC1=O` [Example 45, {[Stearyl-βAla-MeLeu-Gln-Cys(&^1)-Asp-Pro-Glu-Thr-Gly-Glu-Cys(&^2)-Leu-Pro-NH2][&^1(1,2-phenylenediyl)dimethylene&^2]}]: 1 to 100 nM.
Same read-out and setting: the same measure for `CCCCCCCCCCCCCCCCCC(=O)NCCC(=O)N[C@@H](CCCCN)C(=O)N[C@@H](CCC(N)=O)C(=O)N[C@H]1CSCc2ccccc2CSC[C@@H](C(=O)N[C@@H](CC(C)C)C(=O)N2CCC[C@H]2C(N)=O)NC(=O)[C@H](CCC(=O)O)NC(=O)CNC(=O)[C@H]([C@@H](C)O)NC(=O)[C@H](CCC(=O)O)NC(=O)[C@@H]2CCCN2C(=O)[C@H](CC(=O)O)NC1=O` [Example 47, {[Stearyl-βAla-Lys-Gln-Cys(&^1)-Asp-Pro-Glu-Thr-Gly-Glu-Cys(&^2)-Leu-Pro-NH2][&^1(1,2-phenylenediyl)dimethylene&^2]}]: less than 1 nM; for `CCCCCCCCCCCCCCCCCC(=O)NCCC(=O)N[C@@H](CC(C)C)C(=O)N[C@@H](CCC(N)=O)C(=O)N[C@H]1CSCc2cc3ccccc3cc2CSC[C@@H](C(=O)N[C@@H](CC(C)C)C(=O)N2CCC[C@H]2C(=O)O)NC(=O)[C@H](CCC(=O)O)NC(=O)CNC(=O)[C@H]([C@@H](C)O)NC(=O)[C@H](CCC(=O)O)NC(=O)[C@H](C)NC(=O)[C@H](CC(=O)O)NC1=O` [Example 38, {[Stearyl-βAla-Leu-Gln-Cys(&^1)-Asp-Ala-Glu-Thr-Gly-Glu-Cys(&^2)-Leu-Pro-OH][&^1(naphthalene)2,3-diyldimethylene&^2]}] ({Stearoyl-βAla}-LQCDAETGECLP-OH; linker 3-10 via X2): 1 to 100 nM.
Consider `CC(C)C[C@H](NC(=O)[C@@H]1CSCc2cccc(c2)CSC[C@H](NC(=O)[C@H](CCC(N)=O)NC(=O)[C@@H](N)CC(C)C)C(=O)N[C@@H](CC(=O)O)C(=O)N[C@@H](CCC(=O)O)C(=O)N[C@@H](CCC(=O)O)C(=O)N[C@@H]([C@@H](C)O)C(=O)NCC(=O)N[C@@H](CCC(=O)O)C(=O)N1)C(=O)N1CCC[C@H]1C(=O)NCCC(=O)N[C@@H](CCCNC(=N)N)C(=O)N[C@@H](CCCCN)C(=O)N[C@@H](CCCCN)C(=O)N[C@@H](CCCNC(=N)N)C(=O)N[C@@H](CCCNC(=N)N)C(=O)N[C@@H](CCC(N)=O)C(=O)N[C@@H](CCCNC(=N)N)C(=O)N[C@@H](CCCNC(=N)N)C(=O)N[C@@H](CCCNC(=N)N)C(N)=O` [Example 9], for which the IC50 fell in the range of 1 to 100 nM.
The same measure, in the same setting: next, `CCCCCCCCCCCCCCCCCC(=O)NCCC(=O)N[C@@H](CC(C)C)C(=O)N[C@@H](CC(C)C)C(=O)N[C@H]1CSCC2(COC2)CSC[C@@H](C(=O)N[C@@H](CC(C)C)C(=O)N[C@@H](CC(C)C)C(N)=O)NC(=O)[C@H](CCC(=O)O)NC(=O)CNC(=O)[C@H]([C@@H](C)O)NC(=O)[C@H](CCC(=O)O)NC(=O)[C@@H]2CCCN2C(=O)[C@H](CC(=O)O)NC1=O` [Example 99, {[Stearyl-βAla-Leu-Leu-Cys(&^1)-Asp-Pro-Glu-Thr-Gly-Glu-Cys(&^2)-Leu-Leu-NH2][&^1(3,3-oxetanediyl)dimethylene&^2]}]: less than 1 nM; `CC(C)C[C@H](NC(=O)[C@@H]1CSCc2cc3ccccc3cc2CSC[C@H](NC(=O)[C@H](CCC(N)=O)NC(=O)[C@@H](N)CC(C)C)C(=O)N[C@@H](CC(=O)O)C(=O)N[C@@H](C)C(=O)N[C@@H](CCC(=O)O)C(=O)N[C@@H]([C@@H](C)O)C(=O)NCC(=O)N[C@@H](CCC(=O)O)C(=O)N1)C(=O)N1CCC[C@H]1C(=O)NCCC(=O)N[C@@H](CCCNC(=N)N)C(=O)N[C@@H](CCCCN)C(=O)N[C@@H](CCCCN)C(=O)N[C@@H](CCCNC(=N)N)C(=O)N[C@@H](CCCNC(=N)N)C(=O)N[C@@H](CCC(N)=O)C(=O)N[C@@H](CCCNC(=N)N)C(=O)N[C@@H](CCCNC(=N)N)C(=O)N[C@@H](CCCNC(=N)N)C(N)=O` [Example 30]: 1 to 100 nM; `CCCCCCCCCCCCCCCCCC(=O)N[C@H]1C[C@H]2C(=O)N[C@@H](CCC(N)=O)C(=O)N[C@H]3CSCc4cccc(c4)CSC[C@H](NC(=O)[C@H](CCC(=O)O)NC(=O)CNC(=O)[C@H]([C@@H](C)O)NC(=O)[C@H](CCC(=O)O)NC(=O)[C@@H]4CSCN4C(=O)[C@H](CC(=O)O)NC3=O)C(=O)N[C@@H](CC(C)C)C(=O)N3CCC[C@@H]3C(=O)N2C1` [Example 96, {[&^1Pro((4S)-NH-Stearyl)-Gln-Cys(&^2)-Asp-Thz-Glu-Thr-Gly-Glu-Cys(&^3)-Leu-D-Pro&^1][&^2(1,3-phenylenediyl)dimethylene&^3]}]: less than 1 nM.
